Measurements reported in patent US8093231B2, “Sulfonylethyl phosphorodiamidates” (Telik, Inc., priority 2004, dated 2012).
Read-outs that look alike come from different tables or passages of the source.

Tests used:
Assay type in all cases: cell-based, human
[1] = test system: LNCap (prostate carcinoma); experiment: Cytotoxicity/growth inhibition assay, LNCap; settings: read-out: IC50 (LNCap)
Text: (§1) The human cancer cell lines DLD-1 (colorectal adenocarcinoma), LNCap (prostate carcinoma), and OVCAR-3 (ovarian carcinoma) were obtained from the American Type Culture Collection, Manassas, Va., U.S.A., and HL-60 (promyeloid myelocytic leukemia), MX-1 (breast carcinoma), P388, and P388ADR from the National Cancer Institute, Bethesda, Md., U.S.A. Carboplatin, doxorubicin, and melphalan were obtained from Sigma-Aldrich Chemical Company, St. Louis, Mo., U.S.A. The CellTiter-Glo assay kit was obtained from Promega Corporation, Madison, Wis., U.S.A., and the Cellular DNA Cytometric Analysis Reagent Kit from Roche Diagnostics Corporation, Indianapolis, Ind., U.S.A. Lambda DNA was obtained from New England Biolabs, Beverly, Mass., U.S.A., and SYBR-Gold from Molecular Probes, Inc., Eugene, Oreg., U.S.A. The DNeasy Tissue Kit was obtained from Qiagen Inc., Valencia, Calif., U.S.A., and AmpliTaq Gold DNA polymerase and PCR reagents from Applied Biosystems, Foster City, Calif., U.S.A. All products were used in accordance with manufacturer's directions. All assays were conducted in triplicate wells, with dimethyl sulfoxide (DMSO) solvent control. The extent of cell growth was expressed as a percentage of the signal from the solvent control wells.
(§2) Log-phase cells were trypsinized, collected by centrifugation, and resuspended in a small volume of fresh medium, and the density of viable cells was determined following Trypan Blue staining. Cells were diluted in fresh media (3×10^3 cells/mL for MX-1, 3×10^3 cells/mL for DLD-1, and 6×10^3 cells/mL for LNCap cells), the test compounds (concentrations between 0.1 and 200 μM, dissolved in DMSO, 50 μL) added immediately after dilution to achieve a final DMSO concentration of 0.5%, then the suspensions added at 150 μL/well to 96-well plates, and incubated for several hours to allow attachment in the case of adherent cells. The cells were cultured for approximately three doubling times (3 days for MX-1 and 4 days for DLD-1 and LNCap). The cells were then collected by centrifugation, and 100 μL of the culture supernatant was replaced by the CellTiter-Glo reagent. After incubation for 15 minutes at room temperature, and the plate was read with a luminometer.

[2] = test system: MX-1 (breast carcinoma); experiment: Cytotoxicity/growth inhibition assay, MX-1; settings: read-out: IC50 (MX-1)
Text: as §1, §2

[3] = test system: DLD-1 (colorectal adenocarcinoma); experiment: Cytotoxicity/growth inhibition assay, DLD-1; settings: read-out: IC50 (DLD-1)
Text: as §1, §2

[4] = LNCap cells, 4 days culture, CellTiter-Glo, 0.1-200 μM tested
[5] = MX-1 cells, 3 days culture, CellTiter-Glo, 0.1-200 μM tested
[6] = DLD-1 cells, 4 days culture, CellTiter-Glo, 0.1-200 μM tested

Row | SMILES | IC50 [1, 4] [µM] | IC50 [2, 5] [µM] | IC50 [3, 6] [µM] | IC50 ([1]; Homo sapiens, LNCaP, 96 h) [µM] | IC50 ([2]; Homo sapiens, MX1, 72 h) [µM] | IC50 ([3]; Homo sapiens, DLD-1, 96 h) [µM]
1 | CCS(=O)(=O)CCOP(=O)(N(CCCl)CCCl)N(CCCl)CCCl [Compound 1A] | 57.1 | 16.9 | 9.1 | – | – | –
2 | O=P(OCCS(=O)(=O)CCS(=O)(=O)CCOP(=O)(N(CCCl)CCCl)N(CCCl)CCCl)(N(CCCl)CCCl)N(CCCl)CCCl [Compound 1B] | 5.1 | 4 | 2.5 | – | – | –
3 | O=P(OCCS(=O)(=O)CCOP(=O)(N(CCCl)CCCl)N(CCCl)CCCl)(N(CCCl)CCCl)N(CCCl)CCCl [Compound 1C, di[2-[[bis[bis(2-chloroethyl)amino]phosphinyl]oxy]ethyl]sulfone] | – | – | – | 1.4 | 0.3 | 0.3
4 | C=CS(=O)(=O)CCOP(=O)(N(CCCl)CCCl)N(CCCl)CCCl [Compound 2A] | 105 | 3.2 | 1.4 | – | – | –
5 | CC(C(C)S(=O)(=O)CCOP(=O)(N(CCCl)CCCl)N(CCCl)CCCl)S(=O)(=O)CCOP(=O)(N(CCCl)CCCl)N(CCCl)CCCl (stereo not drawn) [Compound 2B] | 10.9 | ≥ 200 | 0.3 | – | – | –
6 | CCCS(=O)(=O)CCOP(=O)(N(CCCl)CCCl)N(CCCl)CCCl [Compound 3A] | 67.6 | 11.4 | 9.2 | – | – | –
7 | O=P(OCCS(=O)(=O)CCCS(=O)(=O)CCOP(=O)(N(CCCl)CCCl)N(CCCl)CCCl)(N(CCCl)CCCl)N(CCCl)CCCl [Compound 3B] | 14.8 | 7.4 | 4.3 | – | – | –
8 | CC(C)S(=O)(=O)CCOP(=O)(N(CCCl)CCCl)N(CCCl)CCCl [Compound 4A] | 67.8 | 24 | 12.7 | – | – | –
9 | O=P(OCCS(=O)(=O)CCCCS(=O)(=O)CCOP(=O)(N(CCCl)CCCl)N(CCCl)CCCl)(N(CCCl)CCCl)N(CCCl)CCCl [Compound 4B] | 11.5 | 4.1 | 2.9 | – | – | –
10 | CC(C)CS(=O)(=O)CCOP(=O)(N(CCCl)CCCl)N(CCCl)CCCl [Compound 6A] | 17.7 | 4.6 | 6.8 | – | – | –
11 | CC(C)(C)S(=O)(=O)CCOP(=O)(N(CCCl)CCCl)N(CCCl)CCCl [Compound 7A] | 165 | 20.6 | 21.8 | – | – | –
12 | O=P(OCCS(=O)(=O)CCCCCCCCS(=O)(=O)CCOP(=O)(N(CCCl)CCCl)N(CCCl)CCCl)(N(CCCl)CCCl)N(CCCl)CCCl [Compound 7B] | 9.5 | 1.9 | 1.5 | – | – | –
13 | CCC(C)CS(=O)(=O)CCOP(=O)(N(CCCl)CCCl)N(CCCl)CCCl (stereo not drawn) [Compound 8A] | 40.9 | 17.5 | 7 | – | – | –
14 | O=P(OCCS(=O)(=O)CCOCCS(=O)(=O)CCOP(=O)(N(CCCl)CCCl)N(CCCl)CCCl)(N(CCCl)CCCl)N(CCCl)CCCl [Compound 8B] | 28 | 10.9 | 6.5 | – | – | –
15 | CC(C)CCS(=O)(=O)CCOP(=O)(N(CCCl)CCCl)N(CCCl)CCCl [Compound 9A] | 17.3 | 5.8 | 5.9 | – | – | –
16 | O=P(OCCS(=O)(=O)CCOCCOCCS(=O)(=O)CCOP(=O)(N(CCCl)CCCl)N(CCCl)CCCl)(N(CCCl)CCCl)N(CCCl)CCCl [Compound 9B] | 25.5 | 6 | 6.1 | – | – | –
17 | O=C(O)CCNC(=O)CS(=O)(=O)CCOP(=O)(N(CCCl)CCCl)N(CCCl)CCCl [Compound 39A] | – | 30.8 | 13.3 | – | – | –
18 | O=C(O)CNC(=O)CS(=O)(=O)CCOP(=O)(N(CCCl)CCCl)N(CCCl)CCCl [Compound 40A] | – | 32 | 13 | – | – | –
19 | CC(C)(C)OC(=O)CC(NC(=O)CS(=O)(=O)CCOP(=O)(N(CCCl)CCCl)N(CCCl)CCCl)C(N)=O (stereo not drawn) [Compound 41A] | – | 29.3 | 10.8 | – | – | –
20 | CC(C)(C)OC(=O)[C@@H]1CCCN1C(=O)CS(=O)(=O)CCOP(=O)(N(CCCl)CCCl)N(CCCl)CCCl [Compound 42A] | – | 7.6 | 4.7 | – | – | –
21 | CC(NC(=O)CS(=O)(=O)CCOP(=O)(N(CCCl)CCCl)N(CCCl)CCCl)C(=O)OC(C)(C)C (stereo not drawn) [Compound 44A] | – | 34.8 | 11.1 | – | – | –
22 | CC(C)(C)OC(=O)CN1CCN(C(=O)CS(=O)(=O)CCOP(=O)(N(CCCl)CCCl)N(CCCl)CCCl)CC1 [Compound 47A] | – | 15.9 | 9.3 | – | – | –
23 | COCCNC(=O)CS(=O)(=O)CCOP(=O)(N(CCCl)CCCl)N(CCCl)CCCl [Compound 48A] | – | 4.4 | 15.5 | – | – | –

Row | SMILES | IC50 [1, 4] [µM] | IC50 [2, 5] [µM] | IC50 [3, 6] [µM] | IC50 ([1]; Homo sapiens, LNCaP, 96 h) [µM] | IC50 ([2]; Homo sapiens, MX1, 72 h) [µM] | IC50 ([3]; Homo sapiens, DLD-1, 96 h) [µM]
24 | O=C(CS(=O)(=O)CCOP(=O)(N(CCCl)CCCl)N(CCCl)CCCl)NCCO [Compound 49A] | – | 29 | 11.6 | – | – | –
25 | CCNC(=O)CS(=O)(=O)CCOP(=O)(N(CCCl)CCCl)N(CCCl)CCCl [Compound 50A] | – | 17.1 | 11.9 | – | – | –
26 | O=C(CS(=O)(=O)CCOP(=O)(N(CCCl)CCCl)N(CCCl)CCCl)N1CCOCC1 [Compound 51A] | – | 6.9 | 6.7 | – | – | –
27 | O=C(CS(=O)(=O)CCOP(=O)(N(CCCl)CCCl)N(CCCl)CCCl)N1CCC(O)CC1 [Compound 52A] | – | 15.6 | 10.2 | – | – | –
28 | CNC(=O)CCS(=O)(=O)CCOP(=O)(N(CCCl)CCCl)N(CCCl)CCCl [Compound 53A] | – | 11.3 | 8.4 | – | – | –
29 | CCNC(=O)CCS(=O)(=O)CCOP(=O)(N(CCCl)CCCl)N(CCCl)CCCl [Compound 54A] | – | 9.3 | 7.4 | – | – | –
30 | O=C(CCS(=O)(=O)CCOP(=O)(N(CCCl)CCCl)N(CCCl)CCCl)NC1CC1 [Compound 55A] | – | 14.7 | 10.1 | – | – | –
31 | O=C(CCS(=O)(=O)CCOP(=O)(N(CCCl)CCCl)N(CCCl)CCCl)NCCO [Compound 56A] | – | 19.3 | 8.2 | – | – | –
32 | COCCNC(=O)CCS(=O)(=O)CCOP(=O)(N(CCCl)CCCl)N(CCCl)CCCl [Compound 57A] | – | 18 | 10.1 | – | – | –
33 | O=C(CCS(=O)(=O)CCOP(=O)(N(CCCl)CCCl)N(CCCl)CCCl)N1CCOCC1 [Compound 58A] | – | 17 | 12.9 | – | – | –
34 | O=C(CCS(=O)(=O)CCOP(=O)(N(CCCl)CCCl)N(CCCl)CCCl)N1CCC(O)CC1 [Compound 59A] | – | 25.4 | 15.1 | – | – | –
35 | O=C(CS(=O)(=O)CCOP(=O)(N(CCCl)CCCl)N(CCCl)CCCl)NC1CC1 [Compound 60A] | – | 11.3 | 7.4 | – | – | –
36 | NC(=O)C(CC(=O)O)NC(=O)CS(=O)(=O)CCOP(=O)(N(CCCl)CCCl)N(CCCl)CCCl (stereo not drawn) [Compound 61A] | – | 30.9 | 20 | – | – | –
37 | O=C(O)[C@@H]1CCCN1C(=O)CS(=O)(=O)CCOP(=O)(N(CCCl)CCCl)N(CCCl)CCCl [Compound 62A] | – | 15 | 16.5 | – | – | –
38 | CC(C)C(NC(=O)CS(=O)(=O)CCOP(=O)(N(CCCl)CCCl)N(CCCl)CCCl)C(=O)O (stereo not drawn) [Compound 63A] | – | 10 | 17.2 | – | – | –
39 | CC(NC(=O)CS(=O)(=O)CCOP(=O)(N(CCCl)CCCl)N(CCCl)CCCl)C(=O)O (stereo not drawn) [Compound 64A] | – | 37.3 | 22 | – | – | –
40 | NC(=O)CC(NC(=O)CS(=O)(=O)CCOP(=O)(N(CCCl)CCCl)N(CCCl)CCCl)C(=O)O (stereo not drawn) [Compound 65A] | – | 31.8 | 21.4 | – | – | –
41 | CS(=O)(=O)CCC(NC(=O)CS(=O)(=O)CCOP(=O)(N(CCCl)CCCl)N(CCCl)CCCl)C(=O)O (stereo not drawn) [Compound 66A] | – | 29.1 | 18.8 | – | – | –
42 | O=C(CS(=O)(=O)CCOP(=O)(N(CCCl)CCCl)N(CCCl)CCCl)N1CCNCC1 [Compound 68A] | – | 36.7 | 18 | – | – | –
43 | O=C(CS(=O)(=O)CCOP(=O)(N(CCCl)CCCl)N(CCCl)CCCl)N1CCN(CCO)CC1 [Compound 69A] | – | 34.6 | 14.1 | – | – | –
44 | COC(=O)[C@H](CS(=O)(=O)CCOP(=O)(N(CCCl)CCCl)N(CCCl)CCCl)NS(C)(=O)=O [Compound 79A, N-(Methanesulfonyl)-3-[[2-[[bis[bis(2-chloroethyl)amino]phosphinyl]oxy]ethyl]sulfonyl]-L-alanine methyl ester] | – | – | – | – | 88 | 26.6
45 | O=C(Nc1cccc(CS(=O)(=O)CCOP(=O)(N(CCCl)CCCl)N(CCCl)CCCl)c1)C1CCCNC1 (stereo not drawn) [Compound 148A] | – | ≥ 200 | ≥ 200 | – | – | –
46 | CN(C)CCNC(=O)c1ccc(CS(=O)(=O)CCOP(=O)(N(CCCl)CCCl)N(CCCl)CCCl)cc1 [Compound 173A] | – | 104 | 37.9 | – | – | –
